Experimental data: patent US12064509B2, “Enema for rectal application” (Dr. Falk Pharma GmbH, priority 2015, dated 2024)

Assays:
[1] = tested on: patients with active ulcerative colitis; assay: Placebo-controlled randomized double-blind multicenter parallel group comparative study (Japic CTI-132294), rectal budesonide foam; format: in vivo, human
Experimental: Dose responsiveness, efficacy and safety are investigated for patients with active ulcerative colitis when budesonide 2 mg is rectally administered once a day or twice a day for 6 weeks by a double-blind comparative study with placebo as a control (clinical trial number: Japic CTI-132294). For the trial, an aerosol with fixed dose injection type for rectal injection (rectal foaming agent) is used as a test drug, in which 25 mL (1.35 g) of white creamy foam containing 2 mg of budesonide is released by one injection. As a remission induction therapeutic agent of ulcerative colitis in active phase where the lesion is confined to the rectum and sigmoid colon, the aerosol for rectal injection is approved in Europe at a dosage and dose of budesonide 2 mg once a day (trade name: Budenofalk 2 mg/dose rectal foam, manufactured by Dr. Falk Pharma GmbH). […] The subjects are ulcerative colitis patients in active phase, and are divided into a group administered the test drug once a day (hereinafter, once a day group, 54 cases), a group administered the test drug twice a day (hereafter, twice a day group, 55 cases), and a group administered the control drug (hereinafter, placebo group, 56 cases). The test drug or control drug is rectally administered twice a day (once in the morning and once in the evening), after defecation, if possible. However, for the once a day group of test drug, a control drug is administered in the morning and a test drug is administered in the evening. The number of injections per dose is one, the administration period is 6 weeks, and the drug is administered until the evening before the evaluation. The dose of budesonide in each group is 2 mg/day for the once a day group, 4 mg/day for the twice a day group, and 0 mg/day for the placebo group. Furthermore, in order to exclude patients whose symptoms improve due to the action of rectal administration (improvement example due to placebo effect) or patients who develop complaints resulting from rectal administration, a pre-observation period in which the control drug is administered twice a day (once in the morning and once in the evening) for one week under a single-blind test is set prior to this administration. […] The point estimate of the odds ratio for the placebo group (95% confidence interval on both sides) in the logistic regression model with model as main effect model, remission rate as objective variable, and administration group and assignment factor as explanatory variables is 3.994 (1.734 to 9.711) in the once a day group, and 3.674 (1.594 to 8.930) in the twice a day group. The lower limit value of 95% confidence interval on both sides exceeds 1 in both groups. […] In addition, the difference point estimate (95% confidence interval on both sides) from the placebo group is 22.8% (4.3% to 39.3%) in the once a day group, 30.5% (12.3% 46.0%) in the twice a day group. Significant differences are observed in the once a day group and twice a day group as compared with the placebo group. The results are illustrated in Table 1 and FIG. 1. In the table and figure, “budesonide once a day administration group” illustrates the result of once a day group, and “budesonide twice a day administration group” illustrates the result of twice a day group, respectively. Patients with MMDAI endoscopic score of 0 are evaluated as mucosal healing. […] In addition, the difference point estimate (95% confidence interval on both sides) from the placebo group is 18.1% (4.8% to 31.3%) in the once a day group, 40.9% (25.2% to 54.2%) in the twice a day group. Significant differences are observed in the once a day group and twice a day group as compared with the placebo group. […]

[2] = tested on: patients with active ulcerative colitis; assay: as above; format: in vivo, human; remark: listed apart in the source
[3] = 2 mg once or twice a day, 6 weeks
[4] = budesonide 2 mg once a day, 6 weeks
[5] = budesonide 2 mg twice a day, 6 weeks
[6] = once a day group, 55 analysis target cases
[7] = twice a day group, 56 analysis target cases

## CCCC1O[C@@H]2C[C@H]3[C@@H]4CCC5=CC(=O)C=C[C@]5(C)[C@H]4[C@@H](O)C[C@]3(C)[C@]2(C(=O)CO)O1 (mixture of isomers) [Budesonide, (+)-[(RS)-16α,17α-Butylidenedioxy-11β,21-dihydroxy-1,4-pregnadiene-3,20-dione]]
[1]; [3]
  adverse events due to administration of the test drug: serum cortisol decrease and serum corticotropin decrease occurs
  serious adverse events or severe adverse events: are not occurred
[1]; 2 mg per dose, 6 weeks
  incidence of adverse events, twice a day group compared with once a day group: increased
[1]; 2 mg rectal administration once a day or twice a day for 6 weeks
  tolerability to patients of ulcerative colitis: acceptable
[1]; [4]
  mucosal healing rate (proportion of subjects with MMDAI endoscopic score of 0): 23.6%
  mucosal remission rate (proportion of subjects with MMDAI endoscopic score of 1 or less): 69.1%
[1]; budesonide 2 mg rectal foam once a day, 6 weeks
  remission rate (MMDAI: bloody stool score 0, endoscopic score 1 or less, stool frequency score 0 or decrease of 1 point or more from week 0): 50.9%
[1]; budesonide 2 mg rectal foam twice a day, 6 weeks
  remission rate (MMDAI: bloody stool score 0, endoscopic score 1 or less, stool frequency score 0 or decrease of 1 point or more from week 0): 48.2%
[1]; [5]
  mucosal healing rate (proportion of subjects with MMDAI endoscopic score of 0): 46.4%
  mucosal remission rate (proportion of subjects with MMDAI endoscopic score of 1 or less): 76.8%
[1]; once a day group, 6 weeks
  mucosal healing rate, point estimate of proportion difference from placebo group: 18.1%
  mucosal remission rate, point estimate of proportion difference from placebo group: 22.8%
  point estimate of the odds ratio versus the placebo group, mucosal healing rate (logistic regression): 5.143
  point estimate of the odds ratio versus the placebo group, remission rate (logistic regression): 3.994
[1]; twice a day group compared with once a day group
  incidence of adverse events related to glucocorticoids: increase in the incidence of adverse events related to glucocorticoids is not observed
[1]; twice a day group, 6 weeks
  mucosal healing rate, point estimate of proportion difference from placebo group: 40.9%
  mucosal remission rate, point estimate of proportion difference from placebo group: 30.5%
  point estimate of the odds ratio versus the placebo group, mucosal healing rate (logistic regression): 15.553
  point estimate of the odds ratio versus the placebo group, remission rate (logistic regression): 3.674
[2]; [6]
  Case (subjects in mucosal remission, endoscopic score 1 or less): 38
  Case (subjects with mucosal healing, endoscopic score 0): 13
[2]; [7]
  Case (subjects in mucosal remission, endoscopic score 1 or less): 43
  Case (subjects with mucosal healing, endoscopic score 0): 26
